In US20230106032A1, “IMIDAZOTRIAZINES ACTING ON CANCER VIA INHIBITION OF CDK12” (Bayer Aktiengesellschaft, priority 2020, published 2023):

Legend:
[1] = test system: CAL-120 human breast adenocarcinoma cells; experiment: Proliferation assay CAL-120 (crystal violet); format: cell-based; conditions: 96 h, CAL-120 cells, 4 days, read-out: Prolif-CAL-120_ IC50-[mol/l] (median)
Procedure: (§1) Human tumour cells were originally obtained from the American Type Culture Collection (ATCC), or from the Deutsche Sammlung von Mikroorganismen und Zellkulturen (DSMZ, German Collection of Microorganisms and Cell Cultures). Cultivated tumour cells (CAL-120, human breast adenocarcinoma cells, DSMZ ACC-459; MDA-MB-231, human breast cancer cells, ATCC HTB-26) were plated at a density of 4,000 cells/well in a 96-well multititer plate in 200 microL of their respective growth medium supplemented 10% fetal calf serum. After 24 hours, the cells of one plate (zero-point plate) were stained with crystal violet (see below), while the medium of the other plates was supplemented with the test substances in various concentrations (0 micromol/L, as well as in the range of 0.01-10 micromol/L; the final concentration of the solvent dimethyl sulfoxide was adjusted to 0.1%) using a Tecan HP D300 Digital Dispenser. The cells were incubated for 4 days in the presence of test substances. Cell proliferation was determined by staining the cells with crystal violet: the cells were fixed by adding 20 microL/measuring point of an 11% glutaric aldehyde solution for 15 minutes at room temperature. After three washing cycles of the fixed cells with water, the plates were dried at room temperature. The cells were stained by adding 100 microL/measuring point of a 0.1% crystal violet solution (pH 3.0). After three washing cycles of the stained cells with water, the plates were dried at room temperature. The dye was dissolved by adding 100 microL/measuring point of a 10% acetic acid solution. The extinction was determined by photometry at a wavelength of 595 nm. The change of cell number, in percent, was calculated by normalization of the measured values to the extinction values of the zero-point plate (=0%) and the extinction of the untreated (0 μM) cells (=100%). The IC50 values (inhibitory concentration at 50% of maximal effect) were determined by means of a 4 parameter fit.

CDK12 = target: T1, CDK12 (Homo sapiens, UniProt Q9NYV4); experiment: CDK12 nuclear protein level: immunofluorescence/high content analysis in CAL-120 cells; format: cell-based; conditions: for DC50: CAL-120 cells, 24 h, nuclear CDK12 staining, read-out: CDK12 degradation IF DC50-[mol/l] (median); for (IC50 CDK12 high ATP) to (Degradation DC50 CDK12) ratio: IC50 CDK12 hATP (Table 2) divided by DC50 CDK12 IF (Table 8)
T1 construct: endogenous in cells; host or cells: CAL-120 human breast cancer cells (DSMZ ACC 459)
T1 sequence (Q9NYV4 whole entry): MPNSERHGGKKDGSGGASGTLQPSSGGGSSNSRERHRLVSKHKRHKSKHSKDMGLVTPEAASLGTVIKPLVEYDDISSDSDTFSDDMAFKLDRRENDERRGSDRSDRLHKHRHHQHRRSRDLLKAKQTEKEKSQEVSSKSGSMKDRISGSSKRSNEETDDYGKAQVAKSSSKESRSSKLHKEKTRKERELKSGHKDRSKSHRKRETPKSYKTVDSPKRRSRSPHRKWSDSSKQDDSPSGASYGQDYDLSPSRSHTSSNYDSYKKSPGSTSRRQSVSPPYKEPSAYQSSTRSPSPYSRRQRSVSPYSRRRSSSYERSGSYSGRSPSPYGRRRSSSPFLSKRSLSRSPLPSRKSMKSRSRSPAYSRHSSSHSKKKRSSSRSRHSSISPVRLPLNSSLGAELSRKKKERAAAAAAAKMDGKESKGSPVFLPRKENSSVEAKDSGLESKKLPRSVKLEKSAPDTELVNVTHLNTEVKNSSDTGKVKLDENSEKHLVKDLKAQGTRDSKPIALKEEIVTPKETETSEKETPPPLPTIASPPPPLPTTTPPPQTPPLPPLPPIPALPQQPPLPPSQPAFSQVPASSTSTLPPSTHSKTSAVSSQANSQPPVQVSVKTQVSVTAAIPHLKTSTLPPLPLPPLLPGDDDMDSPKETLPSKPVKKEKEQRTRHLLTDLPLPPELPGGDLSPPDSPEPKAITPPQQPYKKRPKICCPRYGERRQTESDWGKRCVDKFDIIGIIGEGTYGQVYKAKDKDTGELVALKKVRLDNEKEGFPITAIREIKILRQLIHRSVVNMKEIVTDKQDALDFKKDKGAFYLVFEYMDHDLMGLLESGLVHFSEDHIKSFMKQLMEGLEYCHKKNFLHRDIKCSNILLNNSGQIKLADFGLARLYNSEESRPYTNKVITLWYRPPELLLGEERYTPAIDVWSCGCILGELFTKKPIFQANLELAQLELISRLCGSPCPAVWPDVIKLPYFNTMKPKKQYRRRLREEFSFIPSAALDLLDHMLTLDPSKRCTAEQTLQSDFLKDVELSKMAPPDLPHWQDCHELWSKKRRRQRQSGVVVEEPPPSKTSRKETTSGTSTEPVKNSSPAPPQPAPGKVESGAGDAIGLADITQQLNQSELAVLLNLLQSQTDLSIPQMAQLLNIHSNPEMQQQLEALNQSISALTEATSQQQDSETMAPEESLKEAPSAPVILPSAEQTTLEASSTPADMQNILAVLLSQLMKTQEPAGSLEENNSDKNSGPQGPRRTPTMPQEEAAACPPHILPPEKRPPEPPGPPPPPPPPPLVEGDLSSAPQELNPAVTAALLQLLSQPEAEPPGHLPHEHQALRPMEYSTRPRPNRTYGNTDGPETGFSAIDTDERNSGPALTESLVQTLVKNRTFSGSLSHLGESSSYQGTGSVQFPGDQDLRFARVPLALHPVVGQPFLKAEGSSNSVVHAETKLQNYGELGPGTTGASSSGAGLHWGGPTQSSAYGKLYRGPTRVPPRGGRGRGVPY
T1 sequence (O75909 whole entry partner): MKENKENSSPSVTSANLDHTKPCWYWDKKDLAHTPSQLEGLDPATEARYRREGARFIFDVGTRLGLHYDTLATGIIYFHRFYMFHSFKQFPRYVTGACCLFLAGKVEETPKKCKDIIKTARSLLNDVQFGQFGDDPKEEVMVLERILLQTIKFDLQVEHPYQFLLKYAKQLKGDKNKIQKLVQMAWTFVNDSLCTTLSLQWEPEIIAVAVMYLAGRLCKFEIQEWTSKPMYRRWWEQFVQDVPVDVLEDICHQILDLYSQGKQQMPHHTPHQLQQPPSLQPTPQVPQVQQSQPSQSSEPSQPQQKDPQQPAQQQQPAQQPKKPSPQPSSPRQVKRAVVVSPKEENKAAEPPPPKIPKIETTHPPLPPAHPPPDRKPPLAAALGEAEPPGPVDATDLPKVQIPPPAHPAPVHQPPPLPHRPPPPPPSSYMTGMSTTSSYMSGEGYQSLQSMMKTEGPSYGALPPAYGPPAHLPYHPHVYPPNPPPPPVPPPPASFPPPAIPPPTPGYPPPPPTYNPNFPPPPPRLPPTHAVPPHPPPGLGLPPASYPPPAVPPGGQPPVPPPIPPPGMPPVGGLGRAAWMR
Procedure: In the context of the present invention, the term “DC50 CDK12” refers to the DC50 values obtained according to the assay described in this section (6) herein below, i.e. the DC50 values for the degradation of CDK12.
(§2) CAL-120 human breast cancer cells (DSMZ ACC 459) are seeded in 1536-well microtiter plates (800 cells per well) containing 50 nanoL of compounds in Dose-Response. Control wells received DMSO or Reference Example 1. Plates are then incubated for 24 h at 37° C. in an humidified incubator and fixed with 4% PFA for 10 min. Then immunofluorescence (IF) against CDK12 (CellSignalling CDK12 Antibody #11973, rabbit, 1:100 dilution) is performed using standard IF protocols. Cells are then stained with Hoechst 33342 (Life Technologies, H-1399, 0.1 microg/ml) and imaged on an automated confocal microscopy system (e.g. Perkin Elmer Opera Phenix). Nuclear and cytoplasmic intensity as well as the nuclear/cytoplasmic intensity ratio is determined by automated image analysis using custom generated scripts (MetaXpress). Data is then transferred to Genedata Screener software, normalized to DMSO and control and DC50 values (degrading concentration to achieve 50% reduction of nuclear CDK12 staining intensity relative to controls) are reported.

[2] = test system: MDA-MB-231 human breast cancer cells; experiment: Proliferation assay MDA-MB-231 (crystal violet); format: cell-based; conditions: 96 h, MDA-MB-231 cells, 4 days, read-out: Prolif-MDA MB231 IC50-[mol/l] (median)
Procedure: as §1

CYCLIN K = CYCLIN K nuclear protein level: immunofluorescence/high content analysis in CAL-120 cells; format: cell-based, human; conditions: 24 h, nuclear CCNK staining, read-out: CYCLIN K degradation IF, DC50-[mol/l] (median)
Procedure: In the context of the present invention, the term “DC50 Cyclin K” refers to the DC50 values obtained according to the assay described in this section (7) herein below, i.e. the DC50 values for the degradation of Cyclin K.
as §2, with “CYCLIN K (ThermoFisher Scientific CCNK” for “CDK12 (CellSignalling CDK12”, “#PA5-85020,” for “#11973,”, “1:200” for “1:100”, “CCNK” for “CDK12”

[3] = test system: BRCA1 mRNA expression in MDA-MB-231 cells; experiment: qRT-PCR assay: inhibition of BRCA1 mRNA expression in MDA-MB-231 cells; format: cell-based; conditions: Homo sapiens, 24 h exposure, normalised to GAPDH, read-out: RTqPCR-MDA-MB-231 IC50 [mol/l] BRCA1 (median)
Procedure: Tissue cultured human MDA-MB-231 human breast cancer cells were plated in 500 microL per well at 200,000 cells/well in a 24 well microtiter plate. After 24 h, the cells were exposed continuously for 24 h to test substances (substances were added with Tecan HP D300 Dispenser). RNA was prepared using Qiagen RNeasy MiniKit (#74106), RNA was quantified using a NanoDrop Equipment, and 600 nano gamms of RNA was converted to cDNA using a SuperScript VILO kit (Thermofisher #11755050) followed by qPCR amplification. BRCA1 and ATR gene expression was measured by RT-qPCR and normalised to GAPDH housekeeping gene expression. qPCR primer sets have been purchased from Thermo Fisher Scientific/Applied Biosystems: BRCA1, #Hs 01556193; ATR, #Hs 00992123; GAPDH, #Hs 03929097.

Row | IC50 [1] [nM] | DC50 (CDK12) [nM] | (IC50 CDK12 high ATP) to (Degradation DC50 CDK12) ratio (CDK12) | IC50 [2] [nM] | DC50 (CYCLIN K) [nM] | Structure (SMILES) | IC50 [3] [nM]
1 | 0.381 | 0.111 | 5221 | 0.948 | 0.0525 | C[C@@H]1CN(c2nc(NCc3nc4c(F)c(F)ccc4[nH]3)c3ncc(Br)n3n2)C[C@H](C)N1 [Example 11, 7-bromo-N-[(4,5-difluoro-1H-benzimidazol-2-yl)methyl]-2-[rel-(3R,5S)-3,5-dimethylpiperazin-1-yl]imidazo[2,1-f][1,2,4]triazin-4-amine] | 0.396
2 | 12.3 | 1.79 | 742 | 27.9 | 1.57 | COc1cccc2[nH]c(CNc3nc(N4CCOCC4)nn4c(Br)cnc34)nc12 [Example 13, 7-bromo-N-[(4-methoxy-1H-benzimidazol-2-yl)methyl]-2-(morpholin-4-yl)imidazo[2,1-f][1,2,4]triazin-4-amine] | 8.06
3 | 2.33 | 0.495 | 4066 | 3.91 | 0.225 | COc1cccc2[nH]c(CNc3nc(N4C[C@@H](C)N[C@@H](C)C4)nn4c(Br)cnc34)nc12 [Example 14, 7-bromo-2-[rel-(3R,5S)-3,5-dimethylpiperazin-1-yl]-N-[(4-methoxy-1H-benzimidazol-2-yl)methyl]imidazo[2,1-f][1,2,4]triazin-4-amine] | 1.47
4 | 3.05 | 1.16 | 1790 | 5.65 | 1.41 | COc1cccc2[nH]c(CNc3nc(N4CCNCC4)nn4c(Br)cnc34)nc12 [Example 15, 7-bromo-N-[(4-methoxy-1H-benzimidazol-2-yl)methyl]-2-(piperazin-1-yl)imidazo[2,1-f][1,2,4]triazin-4-amine] | 2.36
5 | 5.89 | 1.32 | 4779 | 13.1 | 0.954 | COc1cccc2[nH]c(CNc3nc(N4CCN(C)CC4)nn4c(Br)cnc34)nc12.O=CO [Example 16, 7-bromo-N-[(4-methoxy-1H-benzimidazol-2-yl)methyl]-2-(4-methylpiperazin-1-yl)imidazo[2,1-f][1,2,4]triazin-4-amine Formate (1/1)] | 5.59
6 | 2.08 | 0.631 | 2854 | 3.45 | 0.505 | C[C@@H]1CN(c2nc(NCc3nc4c(F)cccc4[nH]3)c3ncc(Br)n3n2)C[C@H](C)N1 [Example 18, 7-bromo-2-[rel-(3R,5S)-3,5-dimethylpiperazin-1-yl]-N-[(4-fluoro-1H-benzimidazol-2-yl)methyl]imidazo[2,1-f][1,2,4]triazin-4-amine] | 1.98
7 | 1.14 | 0.513 | 12546 | 2.73 | 0.0931 | C[C@@H]1CN(c2nc(NCc3nc4cc(F)ccc4[nH]3)c3ncc(Br)n3n2)C[C@H](C)N1 [Example 19, 7-bromo-2-[rel-(3R,5S)-3,5-dimethylpiperazin-1-yl]-N-[(5-fluoro-1H-benzimidazol-2-yl)methyl]imidazo[2,1-f][1,2,4]triazin-4-amine] | 0.886
8 | 10.7 | 0.842 | 4106 | 3.73 | 0.0659 | Fc1ccc2[nH]c(CNc3nc(N4CCOCC4)nn4c(Br)cnc34)nc2c1 [Example 20, 7-bromo-N-[(5-fluoro-1H-benzimidazol-2-yl)methyl]-2-(morpholin-4-yl)imidazo[2,1-f][1,2,4]triazin-4-amine] | 3.54
9 | 4.82 | 2.78 | 5916 | 19.7 | 0.227 | CN1CCN(c2nc(NCc3nc4cc(F)ccc4[nH]3)c3ncc(Br)n3n2)CC1 [Example 21, 7-bromo-N-[(5-fluoro-1H-benzimidazol-2-yl)methyl]-2-(4-methylpiperazin-1-yl)imidazo[2,1-f][1,2,4]triazin-4-amine] | 3.11
10 | 3.06 | 1.96 | 1305 | 4.41 | 0.589 | Fc1cccc2[nH]c(CNc3nc(N4CCNCC4)nn4c(Br)cnc34)nc12 [Example 22, 7-bromo-N-[(4-fluoro-1H-benzimidazol-2-yl)methyl]-2-(piperazin-1-yl)imidazo[2,1-f][1,2,4]triazin-4-amine] | 0.884
11 | 14.2 | 4.04 | 2680 | 34.3 | 0.863 | CN1CCN(c2nc(NCc3nc4c(F)cccc4[nH]3)c3ncc(Br)n3n2)CC1 [Example 23, 7-bromo-N-[(4-fluoro-1H-benzimidazol-2-yl)methyl]-2-(4-methylpiperazin-1-yl)imidazo[2,1-f][1,2,4]triazin-4-amine] | 3.12
12 | 1.2 | 0.274 | 2691 | 1.52 | 0.0613 | C[C@@H]1CN(c2nc(NCc3nc4ccccc4[nH]3)c3ncc(C(F)(F)F)n3n2)C[C@H](C)N1.O=CO [Example 24, N-[(1H-benzimidazol-2-yl)methyl]-2-[rel-(3R,5S)-3,5-dimethylpiperazin-1-yl]-7-(trifluoromethyl)imidazo[2,1-f][1,2,4]triazin-4-amine Formate (1/1)] | 1.1
